Data reported in US7642261B2, “Use of 1-[4-(5-cyanoindol-3-yl)butyl]-4-(2-carbamoyl-benzofuran-5-yl)-piperazine and its physiologically acceptable salts” (Merck Patent GmbH, priority 2002, dated 2010).

What was measured:
Type in all cases: in vivo
[1] = Intradermal formalin test; conditions: 10 mg/kg p.o.
Method: Rapid procedures to test pain-relieving properties of drugs are the abdominal constriction (writhing) test according to E. Siegmund et all., Proc. Soc. Exp. Biol. Med. 1957, 95: 729-731 and the intradermal formalin test according to S. Hunskaar et al., J. Neurosci. Meth. 1985, 14: 69-76. For example, 1-[4-(5-cyanoindol-3-y1)butyl]-4-(2-carbamoyl-benzofuran-5-yl)-piperazine hydrochloride at 30 mg/kg p.c. reduced abdominal contrictions by 82%, and 10 mg/kg p.o. reduced the formalin-induced pain response by 79%.

mice = assay: Marble Burying Test (model for OCSD including OCD); conditions: 3 mg/kg, subcutaneous application
Method: A typical model for OCSD including OCD is the Marble Burying Test according to Y. Ichimaru, T. Egawa, A. Sawa, Jpn. J. Pharmacol. 1995, 68: 65-70.
The apparatus consists of an open cubic box with 25 clean glass marbles evenly spaced on sawdust. Individual mice are placed in the test box, and the number of glass marbles left uncovered after 20 minutes are counted. 1-[4-(5-cyanoindol-3-yl)butyl]-4-(2-carbamoyl-benzofuran-5-yl)-piperazine or one of its physiologically acceptable salts, in particular 1-[4-(5-cyanoindol-3-yl)butyl]-4-(2-carbamoyl-benzofuran-5-yl)-piperazine hydrochloride, following subcutaneous application inhibits mable burying in mice dose-dependently. For example, a dose of 3 mg/kg of 1-[4-(5-cyanoindol-3-yl)butyl]-4-(2-carbamoyl-benzofuran-5-yl)-piperazine hydrochloride nearly completely (92%) inhibits marble burying; equieffective doses of conventional serotonin reuptake inhibitors are e.g. 20 mg/kg for fluvoxamine or 17 mg/kg for fluoxetine and an equieffective dose of the 5-HT1A agonist ipsapirone is 10 mg/kg.

aged rats = assay: Morris Water Maze in aged rats; conditions: old rats, tested at day 7, untreated old rats 95 sec, vehicle treated young rats 76 sec
From the text: Typical models for dementia, Alzheimer's disease and multi-infarct are the Passive Avoidance test in rats [S. D. Glick and B. Zimmerberg, Behav. Biol., 1972, 7: 245-254; D. K. Rush, Behav. Neural Biol., 1988, 50: 255-274] and the testing of memory functions in the Morris Water Maze in aged rats [R. Morris, J. Neurosci. Methods, 1984, 11: 47-60, F. H. Gage et al. Neurobiol. Aging. 1984, 5: 43-48].
The Morris Water Maze consists of a circular water tank (150 cm in diameter) filled with water with an escape platform (15 cm in diameter) 18 cm from the periphery beneath the surface of the water. The water is made opaque rendering the platform invisible. Rats placed in the tank swim around and find the hidden platform accidently after a certain time (latency), and the latency to find the platform is taken as measure. When given further training session to find the platform, rats show reduced latencies from day to day, i.e. remember (learn) the location of the platform. But compared to young rats, aged rats perform less well in learning over days reflecting impaired learning capacity. Drugs effective for dementia and particularly Alzheimers disease improve the earning capacity of aged rats.
1-[4-(5-cyanoindol-3-yl)butyl]-4-(2-carbamoyl-benzofuran-5-yl)-piperazine hydrochloride is administered to old rats at oral doses of 1 and 3 mg/kg every day. […]

Cl.N#Cc1ccc2[nH]cc(CCCCN3CCN(c4ccc5oc(C(N)=O)cc5c4)CC3)c2c1 [1-[4-(5-cyanoindol-3-yl)butyl]-4-(2-carbamoyl-benzofuran-5-yl)-piperazine hydrochloride]
reduction of formalin-induced pain response [1]: 79% | inhibition of marble burying (mice): 92% | latency to find the platform in the first attempt (aged rats; oral 1 mg/kg every day): 77 s | latency to find the platform in the first attempt (aged rats; oral 3 mg/kg every day): 73 s
